We go through one compound from PMC10222987 (Viruses, 2023).

This series can be described thus: in vivo. As to conditions: BALB/c, mouse, sc; for AUC(0-t): AUC0–24.

One may read the AUC(0-t) as exposure summed from dosing to a finite time, without extrapolation to infinity. A word on the Cmax: it is the highest concentration seen after dosing. Regarding `O=C1c2c(O)c(=O)ccn2N([C@@H]2c3ccccc3SCc3c2ccc(F)c3F)[C@@H]2COCCN12` [baloxavir acid], the AUC(0-t) runs as follows: (0.125 mg/kg) 0.267 µg·h/mL; (0.25 mg/kg) 0.535 µg·h/mL; (0.5 mg/kg) 0.961 µg·h/mL; (1 mg/kg) 1.81 µg·h/mL; (8 mg/kg) 6.38 µg·h/mL; (16 mg/kg) 11.1 µg·h/mL. The AUC(0-t) stood at 8.86 µg·h/mL (32 mg/kg) and 12.6 µg·h/mL (64 mg/kg). Also, the Cmax reads like this: (0.125 mg/kg) 0.0187 µg/mL; (0.25 mg/kg) 0.0373 µg/mL; (0.5 mg/kg) 0.0661 µg/mL; (1 mg/kg) 0.124 µg/mL; (2 mg/kg) 0.222 µg/mL; (4 mg/kg) 0.417 µg/mL. The Cmax came out at 0.414 µg/mL (8 mg/kg), 0.726 µg/mL (16 mg/kg), 0.682 µg/mL (32 mg/kg) and 0.938 µg/mL (64 mg/kg).
